The source of these data is patent publication US20210198277A1, “AMINE-SUBSTITUTED ARYL OR HETEROARYL COMPOUNDS” (Epizyme, Inc., priority 2016, published 2021).

The term IC50 denotes the concentration needed to halve the response being measured.

In the assay the target is T1, EHMT2 (Homo sapiens, UniProt Q96KQ7).
T1 construct: host or cells: MDA-MB-231
T1 sequence (Q96KQ7 1-1210): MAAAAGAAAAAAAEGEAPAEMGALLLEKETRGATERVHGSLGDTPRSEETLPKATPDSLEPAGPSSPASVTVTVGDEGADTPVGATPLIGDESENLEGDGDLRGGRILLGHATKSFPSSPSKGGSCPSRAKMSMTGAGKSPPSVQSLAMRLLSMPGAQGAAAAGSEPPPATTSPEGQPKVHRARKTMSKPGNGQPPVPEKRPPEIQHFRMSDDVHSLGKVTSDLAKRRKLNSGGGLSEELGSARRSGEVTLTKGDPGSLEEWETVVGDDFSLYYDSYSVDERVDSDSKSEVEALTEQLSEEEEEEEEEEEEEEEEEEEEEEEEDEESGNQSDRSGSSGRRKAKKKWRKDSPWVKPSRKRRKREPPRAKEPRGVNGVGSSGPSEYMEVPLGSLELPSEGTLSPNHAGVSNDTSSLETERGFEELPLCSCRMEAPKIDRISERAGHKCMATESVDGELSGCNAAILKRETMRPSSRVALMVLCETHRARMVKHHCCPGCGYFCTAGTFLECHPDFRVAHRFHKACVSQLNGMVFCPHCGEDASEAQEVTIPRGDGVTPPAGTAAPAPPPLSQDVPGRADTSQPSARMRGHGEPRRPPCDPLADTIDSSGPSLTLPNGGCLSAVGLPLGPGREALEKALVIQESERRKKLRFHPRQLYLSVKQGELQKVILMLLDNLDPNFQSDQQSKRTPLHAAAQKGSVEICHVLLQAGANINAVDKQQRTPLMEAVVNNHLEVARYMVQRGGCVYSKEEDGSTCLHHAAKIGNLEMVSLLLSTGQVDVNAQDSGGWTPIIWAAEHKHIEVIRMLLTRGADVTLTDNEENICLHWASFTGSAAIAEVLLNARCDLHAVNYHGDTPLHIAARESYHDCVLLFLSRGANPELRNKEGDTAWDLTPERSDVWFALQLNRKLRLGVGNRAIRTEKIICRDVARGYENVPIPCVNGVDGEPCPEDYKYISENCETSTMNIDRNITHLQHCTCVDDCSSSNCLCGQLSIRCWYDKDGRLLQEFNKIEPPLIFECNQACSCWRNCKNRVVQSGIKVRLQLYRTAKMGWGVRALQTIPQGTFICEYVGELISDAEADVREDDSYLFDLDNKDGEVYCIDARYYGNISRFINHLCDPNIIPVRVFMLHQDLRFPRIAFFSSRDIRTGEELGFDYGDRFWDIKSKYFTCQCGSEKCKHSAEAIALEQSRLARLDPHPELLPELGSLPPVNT
Description: MDA-MB-231 H3K9me2 in-cell Western assay (EHMT2 ICW). The note with it: Table II; MDA-MB-231 H3K9me2 in-cell Western; read-out: EHMT2 ICW (IC50 μM). Type of assay: cell-based. The gist of the method:
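Steps: compound added to plate, MDA-MB-231 cells plated in RPMI with 10% FBS, incubation for 48 h at 37 °C, fixation, overnight anti-H3K9me2 staining at 4 °C, and donkey anti-mouse 800CW with DRAQ5 counterstain. IC50 values come from percent inhibition fitted with a four-parameter model.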

Molecules are shown by their SMILES.

As to `COc1ccc(Nc2ccc3nn(C)cc3c2)cc1OCCCN1CCCC1` [Compound 221], the IC50 is greater than 10 µM.

For `COc1ccc(Nc2cccc3cn(C)nc23)cc1OCCCN1CCCC1` [Compound 222], the IC50 was greater than 10 µM.

Regarding `COc1ccc(Nc2ccc3ncc(C)n3n2)cc1OCCCN1CCCC1` [Compound 223], the IC50 is greater than 10 µM.

For `COc1ccc(Nc2nccc(-c3cnn(C)c3)n2)cc1OCCCN1CCCC1` [Compound 224], the IC50 is greater than 10 µM.

`COc1ccc(Nc2nccc(Nc3cccc(F)c3)n2)cc1OCCCN1CCCC1` [Compound 225]: the IC50 was in the range of 1 to 10 µM.

Regarding `COc1ccc(Nc2nccc(NCC3CCOCC3)n2)cc1NCCCN1CCCC1` [Compound 226], the IC50 was in the range of 1 to 10 µM.

As to `COc1ccc(OCCCN2CCCC2)cc1Nc1nccc(NCC2CCOCC2)n1` [Compound 227], the IC50 was greater than 10 µM.

On to `COc1ccc(NCCCN2CCCC2)cc1Nc1nccc(NCC2CCOCC2)n1` [Compound 228], for which the IC50 is greater than 10 µM.

For the compound `CNc1ccnc(Nc2ccc(OC)c(OCCCN3CC[C@@H](F)C3)c2)n1` [Compound 229], the IC50 lay in the range of 1 to 10 µM.

Turning to `CNc1ccnc(Nc2ccc(OC)c(OCCCN3CC(F)C3)c2)n1` [Compound 230], the IC50 is 1 to 10 µM.

With `CNc1nccc(Nc2ccc(OC)c(OCCCN3CCCC3)c2)n1` [Compound 231], the IC50 fell in the range of 0.1 to 1 µM.

As for `CNc1cc(C)nc(Nc2ccc(F)c(OCCCN3CCCC3)c2)n1` [Compound 232], the IC50 was greater than 10 µM.

On to `CNc1nc(Nc2ccc(OC)c(OCCCN3CCCC3)c2)ncc1C#N` [Compound 233], for which the IC50 was greater than 10 µM.

Turning to `CNc1nc(Nc2ccc(OC)c(OCCCN3CCCC3)c2)ncc1C(F)(F)F` [Compound 234], the IC50 was greater than 10 µM.

As to `CNc1ncc(C(F)(F)F)c(Nc2ccc(OC)c(OCCCN3CCCC3)c2)n1` [Compound 235], the IC50 was greater than 10 µM.

As to `CNc1nc(Nc2ccc(OC)c(OCCCN3CCCC3)c2)nc(C)c1F` [Compound 236], the IC50 was 0.1 to 1 µM.

With `CNc1ccnc(Nc2ccc(OC)c(OCCN3CCOCC3)c2)n1` [Compound 237], the IC50 was greater than 10 µM.

`CNc1ccnc(Nc2ccc3c(c2)N(C(=O)CCN(C)C)CC3)n1` [Compound 239]: the IC50 was greater than 10 µM.

As for `CCc1cc(NC)nc(Nc2ccc(OC)c(OCCCN3CCCC3)c2)n1` [Compound 240], the IC50 fell in the range of 0.1 to 1 µM.

Take `COc1ccc(Nc2nccc(CNC3CCOCC3)n2)cc1OCCCNc1ccccc1` [Compound 241]: the IC50 was greater than 10 µM.

With `COc1ccc(Nc2cnnc(NCC3CCN(C(C)=O)CC3)c2)cc1OCCCN1CCCC1` [Compound 242], the IC50 was greater than 10 µM.

With `COc1ccc(Nc2nccc(NCC3CCOCC3)n2)cc1OC1CC2(C1)CN(C)C2` [Compound 243], the IC50 is greater than 10 µM.

For `CNc1ccnc(Nc2ccc(F)c(OCCCN3CCCC3)c2)n1` [Compound 244], the IC50 was greater than 10 µM.

For `COc1ccc(Nc2nccc(N)n2)cc1OCCCN1CCCC1` [Compound 245], the IC50 was in the range of 1 to 10 µM.

`CNc1cnnc(Nc2ccc(OC)c(OCCCN3CCCC3)c2)c1` [Compound 246]: the IC50 is greater than 10 µM.

Consider `CNc1cncc(Nc2ccc(OC)c(OCCCN3CCCC3)c2)n1` [Compound 247], for which the IC50 lay within 1 to 10 µM.

Consider `CNc1cc(Nc2cc(OCCCN3CCCC3)c(OC)cn2)ccn1` [Compound 248], for which the IC50 was in the range of 0.1 to 1 µM.

Consider `COc1ccc(Nc2nccc3[nH]ncc23)cc1OCCCN1CCCC1` [Compound 249], for which the IC50 is greater than 10 µM.

For `COc1ccc(Nc2ccnc3[nH]ccc23)cc1OCCCN1CCCC1` [Compound 250], the IC50 is greater than 10 µM.

With `CC(C)Nc1ccnc(Nc2cccc(OCCCN3CC[C@@H](F)C3)c2)n1` [Compound 251], the IC50 is greater than 10 µM.

On to `CNc1ccnc(Nc2cccc(OC[C@H](O)CN3CCCC3)c2)n1` [Compound 252], for which the IC50 was 1 to 10 µM.

With `CNc1ccnc(Nc2cccc(OC[C@@H](O)CN3CCCC3)c2)n1` [Compound 253], the IC50 was greater than 10 µM.
